The values below come from patent US20100226991A1, “SOLID INORGANIC/ORGANIC HYBRID WITH MODIFIED SURFACE” (CENTRE NATIONAL DE LA RECHERCHE SCIENTIFIQUE - CNRS-, priority 2007, published 2010).

For data set [1] the following is noted: 20° C.; cited from earlier work.
Data set [2] in a line: Solubility of busulfan in various solvents. In kind it is physicochemical. From the text: The solvents chosen for the impregnation are those in which busulfan has appreciable solubility (acetone, acetonitrile, chloroform, dichloromethane, dimethyl carbonate) (Table 18).
Another data set has as its system Female Wistar rats. Conditions: rat, in vivo. How it is done:
The animals used for the experiment are […] female Wistar rats weighing 161.36±16.1 g.
All the tests were performed in the animal house of the University Pharmacy school under temperature and humidity conditions, and after 3 days of adapting the animals to the animal house (3 days).
For the acute toxicity tests, a single intrajugular injection of the materials MIL-88A (150 and 500 nm), MIL-88Bt (50 and 140 nm) or 5% glucose (control group) is performed on 4 groups (at 1 day, 1 week, 1 month and 3 months, respectively) of 8 rats chosen at random and anesthetized with isoflurane.
The change in weight and the behavior of the animals were monitored. […]
Moreover, each group of animals was sacrificed after 1 day, 1 week, 1 and 3 months, respectively. The animals were anesthetized with isoflurane and the spleen, kidneys, liver and heart were then removed and stored for histological studies. Four livers were also used to perform a microsomal extraction in order to measure the activation of cytochrome P450. […]

For a further data set, the system named is Cytochrome P450. Details: species or system Wistar rats. Conditions: rat, in vivo. From the text:
Moreover, each group of animals was sacrificed after 1 day, 1 week, 1 and 3 months, respectively. The animals were anesthetized with isoflurane and the spleen, kidneys, liver and heart were then removed and stored for histological studies. Four livers were also used to perform a microsomal extraction in order to measure the activation of cytochrome P450.
Cytochrome P450 is an enzyme associated with the […] of the smooth endoplasmic reticulum, which is highly involved in the degradation of exogenous molecules. This enzyme has very low substrate specificity and is capable of catalyzing the transformation of newly synthesized compounds such as medicaments. The majority of the P450 cytochromes can be induced or repressed, at the transcriptional level, by various xenobiotics; this is often the cause of side effects of medicaments. Assaying this enzyme makes it possible to determine whether the MOF material used is metabolized by cytochrome P450, in which case it will activate or inhibit its activity.
The amount of cytochrome can be interpreted only on condition that it has been related to the total amount of protein contained in each sample. Assay of the protein contained in the sample was performed by means of a BCA kit supplied by Pierce (batch #HI106096). […]

Another data set has as its system rats. Conditions: cited from earlier work.

Values after ≈ are worked out from the molar mass of the structure shown.

Consider `COc1ccc(C(=O)c2ccccc2)c(O)c1` [Benzophenone-3, 2-hydroxy-4-methoxybenzophenone], for which the solubility in water in data set [1] is 3.7 µg/mL (≈ 0.0162 mM).

As usually defined, the solubility is the concentration that dissolves in the medium under given conditions. Consider `CS(=O)(=O)OCCCCOS(C)(=O)=O` [busulfan, 1,4-butanediol dimethylsulfonate], for which the solubility in data set [2] (acetone, organic solvent or mixture) was 20000 µg/mL; in data set [2] (acetonitrile, organic solvent or mixture), 30000 µg/mL; in data set [2] (chloroform, organic solvent or mixture), 8000 µg/mL; in data set [2] (dichloromethane, organic solvent or mixture), 10000 µg/mL; in data set [2] (dimethyl carbonate, organic solvent or mixture) it was 13000 µg/mL; in data set [2] (ethanol, organic solvent or mixture), < 4000 µg/mL. For the same compound, the solubility in data set [2] (ether, organic solvent or mixture) is < 4000 µg/mL; in data set [2] (ethyl acetate, organic solvent or mixture), 6600 µg/mL; in data set [2] (hexane, organic solvent or mixture) it was < 4000 µg/mL; in data set [2] (methanol, organic solvent or mixture), < 4000 µg/mL; in data set [2] (tetrahydrofuran, organic solvent or mixture) it was ~5000 µg/mL; in data set [2] (toluene, organic solvent or mixture), ~4000 µg/mL. In data set [2] (water), the solubility worked out at 100 µg/mL.

With `COc1cc(O)c(C(=O)c2ccccc2)cc1S(=O)(=O)O` [Benzophenone-4, 2-hydroxy-4-methoxybenzophenone-5-sulfonic acid], the solubility in water in data set [1] was 100000 µg/mL (≈ 324 mM).

On to “Fe3O[O2C—C6(CH3)4—CO2]3.OH.nH2O [MIL-88Bt]”, for which, in the data set with Female Wistar rats, the liver weight entry is “the weight remains high”, the seric iron entry was “recovered a seric iron concentration comparable to that of the control group”, the “signs of severe toxicity” value is reported as “do not induce any sign of severe toxicity” and the “weight change of the animals” value is listed as “does not produce a significant variation in weight over time”. For the same compound, the “metabolism by cytochrome P450 (cytochrome activity vs glucose control)” value in the data set on Cytochrome P450 is “does not appear to be metabolized by Cyp450”.

Turning to `[Cl][Zr]([Cl])([Cl])[Cl]` [ZrCl4], the “oral lethal dose 50 (LD50)” value in the data set with rats is 1700 mg/kg.

On to Fe3O[O2C—C2H2—CO2]3.X.nH2O [MIL-88A], for which, in the data set with Female Wistar rats, the liver weight result is on record as “returns to normal for MIL-88A after 3 months”, the seric iron entry is “recovered a seric iron concentration comparable to that of the control group”, the “signs of severe toxicity” value is “do not induce any sign of severe toxicity” and the “weight change of the animals” value is “does not produce a significant variation in weight over time”. Also, in the data set with Cytochrome P450, the “metabolism by cytochrome P450 (cytochrome activity vs glucose control)” value is on record as “not metabolized by Cyp450”.
